Test results as given in ChEMBL document CHEMBL4342453, “Prenylated p-Terphenyls from a Mangrove Endophytic Fungus, Aspergillus candidus LDJ-5” (J Nat Prod, 2020).
In brackets after ≈: the same amount, converted by molar mass.

Legend:
MGC-803 = assay: Cytotoxicity against human MGC803 cells after 24 hrs by SRB method; conditions: MGC-803, 24 h
Bel-7402 = assay: Cytotoxicity against human Bel7402 cells after 24 hrs by SRB method; conditions: Bel-7402, 24 h
HCT-116 = assay: Cytotoxicity against human HCT116 cells after 24 hrs by SRB method; conditions: HCT-116, 24 h
SH-SY5Y = assay: Cytotoxicity against human SH-SY5Y cells after 24 hrs by SRB method
L02 = assay: Cytotoxicity against human L02 cells after 24 hrs by SRB method; conditions: L02, 24 h
HeLa = assay: Cytotoxicity against human HeLa cells after 24 hrs by SRB method
HL-60 = assay: Cytotoxicity against human HL60 cells after 72 hrs by MTT assay; assay type: functional, cell-based; conditions: HL-60, 72 h
A549 = assay: Cytotoxicity against human A549 cells after 24 hrs by SRB method; conditions: A549, 24 h
U-87 MG = assay: Cytotoxicity against human U87 cells after 24 hrs by SRB method
K562 = assay: Cytotoxicity against human K562 cells after 72 hrs by MTT assay; conditions: K562, 72 h
Proteus = assay: Antibacterial activity against Proteus by conventional broth dilution assay; assay type: functional

COc1cc(-c2c(OC)cc(-c3ccccc3)c(OC)c2O)cc2c1OC(C)(C)CC2
IC50 (MGC-803): 12.5 µM | IC50 (Bel-7402): 12.6 µM | IC50 (HCT-116): 16.9 µM | IC50 (SH-SY5Y): 12.4 µM | IC50 (L02): 29.7 µM | IC50 (HeLa): 11.5 µM | IC50 (HL-60): > 50 µM | IC50 (A549): 16.3 µM | IC50 (U-87 MG): > 50 µM | IC50 (K562): > 50 µM

COc1cc2oc3c(OC)c(-c4cc(CC=C(C)C)c(O)c(OC)c4)cc(OC)c3c2cc1O
IC50 (MGC-803): 1.4 µM | IC50 (Bel-7402): 16 µM | IC50 (HCT-116): 0.9 µM | IC50 (SH-SY5Y): 2.2 µM | IC50 (L02): 17.9 µM | IC50 (HeLa): 10.1 µM | IC50 (HL-60): 3.4 µM | IC50 (A549): 2.8 µM | IC50 (U-87 MG): > 50 µM | IC50 (K562): > 50 µM

COc1cc(-c2ccc(O)c(O)c2)c(OC)c(O)c1-c1ccc(OCC=C(C)C)c(O)c1
IC50 (MGC-803): 0.7 µM | IC50 (Bel-7402): > 50 µM | MIC (Proteus): 22 µg/mL (≈ 50.2 µM) | IC50 (HCT-116): 0.5 µM | IC50 (SH-SY5Y): 0.6 µM | IC50 (L02): 3.5 µM | IC50 (HeLa): 2 µM | IC50 (HL-60): > 50 µM | IC50 (A549): 0.4 µM | IC50 (U-87 MG): 13.8 µM | IC50 (K562): > 50 µM

COc1cc(-c2c(OC)cc(-c3ccccc3)c(OC)c2O)ccc1OC/C=C(\C)CO
IC50 (MGC-803): 11 µM | IC50 (Bel-7402): 12.4 µM | IC50 (HCT-116): 9.3 µM | IC50 (SH-SY5Y): 10.4 µM | IC50 (L02): 19.9 µM | IC50 (HeLa): 8.3 µM | IC50 (HL-60): 7.1 µM | IC50 (A549): 10.2 µM | IC50 (U-87 MG): > 50 µM | IC50 (K562): > 50 µM

COc1c(-c2ccccc2)cc(OC)c2c1oc1c3c(c(O)cc12)OC(C)(C)C=C3
IC50 (MGC-803): > 50 µM | IC50 (Bel-7402): > 50 µM | IC50 (HCT-116): > 50 µM | IC50 (SH-SY5Y): > 50 µM | IC50 (L02): > 50 µM | IC50 (HeLa): > 50 µM | IC50 (HL-60): > 50 µM | IC50 (A549): > 50 µM | IC50 (U-87 MG): > 50 µM | IC50 (K562): > 50 µM

COc1cc2oc3c(OC)c(-c4cc(CC=C(C)C)c(O)c(OC)c4)cc(OC)c3c2cc1OC
IC50 (MGC-803): > 50 µM | IC50 (Bel-7402): > 50 µM | IC50 (HCT-116): > 50 µM | IC50 (SH-SY5Y): > 50 µM | IC50 (L02): > 50 µM | IC50 (HeLa): > 50 µM | IC50 (HL-60): > 50 µM | IC50 (A549): > 50 µM | IC50 (U-87 MG): > 50 µM | IC50 (K562): > 50 µM

COc1ccc(-c2c(OC)cc(-c3ccc(O)c(CC=C(C)C)c3)c(OC)c2O)cc1OC
IC50 (MGC-803): 8.1 µM | IC50 (Bel-7402): > 50 µM | IC50 (HCT-116): 6.2 µM | IC50 (SH-SY5Y): 15.6 µM | IC50 (L02): > 50 µM | IC50 (HeLa): 8.5 µM | IC50 (HL-60): > 50 µM | IC50 (A549): 7.6 µM | IC50 (U-87 MG): > 50 µM | IC50 (K562): 15.9 µM

COc1c(-c2ccccc2)cc(OC)c2c1oc1cc(O)c(OCC=C(C)C)cc12
IC50 (MGC-803): 16.3 µM | IC50 (Bel-7402): 14.9 µM | IC50 (HCT-116): 19.8 µM | IC50 (SH-SY5Y): 17.9 µM | IC50 (L02): 16.7 µM | IC50 (HeLa): 14 µM | IC50 (HL-60): > 50 µM | IC50 (A549): 19.1 µM | IC50 (U-87 MG): 10.3 µM | IC50 (K562): 5 µM

COc1cc(-c2c(OC)cc(-c3ccccc3)c(OC)c2O)cc(CC=C(C)C)c1O
IC50 (MGC-803): 14.5 µM | IC50 (Bel-7402): 11.1 µM | IC50 (HCT-116): 14.7 µM | IC50 (SH-SY5Y): 16.7 µM | IC50 (L02): 24.4 µM | IC50 (HeLa): 11.4 µM | IC50 (HL-60): > 50 µM | IC50 (A549): 14.8 µM | IC50 (U-87 MG): > 50 µM | IC50 (K562): > 50 µM
